Columns and labels:
Assay in all cases: KINOMEscan competition binding
Details in all cases: compound 10.0 µM
AURKC (human) = AURKC (human) (UniProt Q9UQB9)
RPS6KA4 KD2 (human) = RPS6KA4 KD2 (human) (UniProt O75676)
RPS6KA2 KD2 (human) = RPS6KA2 KD2 (human) (UniProt Q15349)
AAK1 (human) = AAK1 (human) (UniProt Q2M2I8)
TAOK3 (human) = TAOK3 (human) (UniProt Q9H2K8)
[1] = molecular target: JAK2 JH1 catalytic (human) (UniProt O60674)
RIOK1 (human) = RIOK1 (human) (UniProt Q9BRS2)
CSNK1G1 (human) = CSNK1G1 (human) (UniProt Q9HCP0)
STK11 (human) = STK11 (human) (UniProt Q15831)
MAPK15 (human) = MAPK15 (human) (UniProt Q8TD08)
CHUK (human) = CHUK (human) (UniProt O15111)
[2] = test system: EGFR (human), P00533 [A750P; 747-749 del]
ULK2 (human) = ULK2 (human) (UniProt Q8IYT8)
MAPK8 (human) = MAPK8 (human) (UniProt P45983)
TTK (human) = TTK (human) (UniProt P33981)
[3] = molecular target: JAK1 JH2 pseudokinase (human) (UniProt P23458)
[4] = molecular target: TYK2 JH2 pseudokinase (human) (UniProt P29597)
LTK (human) = LTK (human) (UniProt P29376)
STK25 (human) = STK25 (human) (UniProt O00506)
[5] = test system: FLT3 (human), P36888 [D835H]
TLK1 (human) = TLK1 (human) (UniProt Q9UKI8)
PDGFRB (human) = PDGFRB (human) (UniProt P09619)
KDR (human) = KDR (human) (UniProt P35968)
ACVR2A (human) = ACVR2A (human) (UniProt P27037)
[6] = test system: RET (human), P07949 [V804M]
PKN1 (human) = PKN1 (human) (UniProt Q16512)
RPS6KA1 KD1 (human) = RPS6KA1 KD1 (human) (UniProt Q15418)
MYLK2 (human) = MYLK2 (human) (UniProt Q9H1R3)
MAP2K1 (human) = MAP2K1 (human) (UniProt Q02750)
MAPK7 (human) = MAPK7 (human) (UniProt Q13164)
RPS6KA6 KD1 (human) = RPS6KA6 KD1 (human) (UniProt Q9UK32)
NEK9 (human) = NEK9 (human) (UniProt Q8TD19)
MAP2K3 (human) = MAP2K3 (human) (UniProt P46734)

JAK1 JH2 pseudokinase (human), sequence (P23458 whole entry, looked up): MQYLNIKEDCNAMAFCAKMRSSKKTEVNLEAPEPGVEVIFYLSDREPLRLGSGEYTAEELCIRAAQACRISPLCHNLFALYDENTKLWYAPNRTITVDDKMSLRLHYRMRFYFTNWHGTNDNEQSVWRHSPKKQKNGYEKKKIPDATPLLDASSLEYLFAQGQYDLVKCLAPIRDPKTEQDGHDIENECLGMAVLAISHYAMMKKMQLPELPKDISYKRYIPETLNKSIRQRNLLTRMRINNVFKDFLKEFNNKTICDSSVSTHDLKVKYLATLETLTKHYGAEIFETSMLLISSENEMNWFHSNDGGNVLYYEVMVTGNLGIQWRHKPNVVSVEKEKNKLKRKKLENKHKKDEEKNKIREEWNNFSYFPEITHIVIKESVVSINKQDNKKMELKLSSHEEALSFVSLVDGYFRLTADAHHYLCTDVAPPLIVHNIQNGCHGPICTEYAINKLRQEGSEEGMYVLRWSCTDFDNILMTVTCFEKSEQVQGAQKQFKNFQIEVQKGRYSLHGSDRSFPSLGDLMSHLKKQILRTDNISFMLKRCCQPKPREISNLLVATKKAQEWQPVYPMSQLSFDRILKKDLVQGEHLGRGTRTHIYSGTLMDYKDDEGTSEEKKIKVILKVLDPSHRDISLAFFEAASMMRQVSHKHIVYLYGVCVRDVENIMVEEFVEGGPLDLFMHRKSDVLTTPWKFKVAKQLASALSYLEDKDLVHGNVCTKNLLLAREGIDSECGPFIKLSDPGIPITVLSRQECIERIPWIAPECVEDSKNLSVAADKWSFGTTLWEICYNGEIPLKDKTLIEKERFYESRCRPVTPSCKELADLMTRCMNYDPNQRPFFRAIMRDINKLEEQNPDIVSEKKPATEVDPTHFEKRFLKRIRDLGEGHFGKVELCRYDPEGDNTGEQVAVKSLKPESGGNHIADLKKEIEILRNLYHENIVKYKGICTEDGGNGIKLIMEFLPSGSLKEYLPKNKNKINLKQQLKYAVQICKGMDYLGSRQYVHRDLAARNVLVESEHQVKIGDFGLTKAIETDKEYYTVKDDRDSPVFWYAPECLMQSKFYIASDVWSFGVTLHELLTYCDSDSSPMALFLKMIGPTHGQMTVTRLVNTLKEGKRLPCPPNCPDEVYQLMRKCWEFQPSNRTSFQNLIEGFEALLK
TAOK3 (human), sequence (Q9H2K8 whole entry, looked up): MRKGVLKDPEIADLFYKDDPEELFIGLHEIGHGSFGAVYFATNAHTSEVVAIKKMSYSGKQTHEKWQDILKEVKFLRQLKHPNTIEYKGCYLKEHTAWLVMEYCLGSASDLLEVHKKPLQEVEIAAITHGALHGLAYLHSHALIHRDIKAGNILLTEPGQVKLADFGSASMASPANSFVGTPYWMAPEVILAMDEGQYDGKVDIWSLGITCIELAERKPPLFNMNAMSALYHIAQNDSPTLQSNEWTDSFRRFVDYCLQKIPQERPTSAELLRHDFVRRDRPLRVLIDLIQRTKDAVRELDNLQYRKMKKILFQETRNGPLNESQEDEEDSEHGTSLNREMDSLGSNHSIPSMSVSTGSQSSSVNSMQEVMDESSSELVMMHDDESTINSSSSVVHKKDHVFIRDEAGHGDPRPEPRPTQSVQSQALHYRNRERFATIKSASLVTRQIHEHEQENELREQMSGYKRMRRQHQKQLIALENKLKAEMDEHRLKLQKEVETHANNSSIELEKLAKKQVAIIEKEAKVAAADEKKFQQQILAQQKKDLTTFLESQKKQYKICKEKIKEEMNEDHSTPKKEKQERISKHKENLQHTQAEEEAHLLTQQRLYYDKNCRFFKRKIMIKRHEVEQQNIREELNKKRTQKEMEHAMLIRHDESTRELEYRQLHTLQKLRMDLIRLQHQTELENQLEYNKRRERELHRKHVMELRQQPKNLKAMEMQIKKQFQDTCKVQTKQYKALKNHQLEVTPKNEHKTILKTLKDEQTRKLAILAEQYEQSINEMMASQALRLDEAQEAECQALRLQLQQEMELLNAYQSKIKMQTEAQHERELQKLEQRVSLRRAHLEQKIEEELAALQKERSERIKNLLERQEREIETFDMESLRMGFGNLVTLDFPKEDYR
RIOK1 (human), sequence (Q9BRS2 whole entry, looked up): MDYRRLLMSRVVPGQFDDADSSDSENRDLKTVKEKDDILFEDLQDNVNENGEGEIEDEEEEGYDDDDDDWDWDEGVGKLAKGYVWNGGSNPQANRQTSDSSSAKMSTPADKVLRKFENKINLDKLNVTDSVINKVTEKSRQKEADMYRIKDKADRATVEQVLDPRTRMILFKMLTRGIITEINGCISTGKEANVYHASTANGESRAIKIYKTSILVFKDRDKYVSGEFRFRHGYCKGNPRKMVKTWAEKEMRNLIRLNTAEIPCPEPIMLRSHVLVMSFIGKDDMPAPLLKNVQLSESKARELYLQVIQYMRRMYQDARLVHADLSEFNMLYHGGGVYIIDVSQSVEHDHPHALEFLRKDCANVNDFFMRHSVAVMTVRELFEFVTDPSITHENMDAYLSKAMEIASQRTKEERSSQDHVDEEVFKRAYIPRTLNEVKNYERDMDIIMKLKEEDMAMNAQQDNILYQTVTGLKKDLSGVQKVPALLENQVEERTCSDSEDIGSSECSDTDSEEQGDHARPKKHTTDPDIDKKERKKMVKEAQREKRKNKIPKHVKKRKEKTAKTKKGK
RPS6KA4 KD2 (human), sequence (O75676 whole entry, looked up): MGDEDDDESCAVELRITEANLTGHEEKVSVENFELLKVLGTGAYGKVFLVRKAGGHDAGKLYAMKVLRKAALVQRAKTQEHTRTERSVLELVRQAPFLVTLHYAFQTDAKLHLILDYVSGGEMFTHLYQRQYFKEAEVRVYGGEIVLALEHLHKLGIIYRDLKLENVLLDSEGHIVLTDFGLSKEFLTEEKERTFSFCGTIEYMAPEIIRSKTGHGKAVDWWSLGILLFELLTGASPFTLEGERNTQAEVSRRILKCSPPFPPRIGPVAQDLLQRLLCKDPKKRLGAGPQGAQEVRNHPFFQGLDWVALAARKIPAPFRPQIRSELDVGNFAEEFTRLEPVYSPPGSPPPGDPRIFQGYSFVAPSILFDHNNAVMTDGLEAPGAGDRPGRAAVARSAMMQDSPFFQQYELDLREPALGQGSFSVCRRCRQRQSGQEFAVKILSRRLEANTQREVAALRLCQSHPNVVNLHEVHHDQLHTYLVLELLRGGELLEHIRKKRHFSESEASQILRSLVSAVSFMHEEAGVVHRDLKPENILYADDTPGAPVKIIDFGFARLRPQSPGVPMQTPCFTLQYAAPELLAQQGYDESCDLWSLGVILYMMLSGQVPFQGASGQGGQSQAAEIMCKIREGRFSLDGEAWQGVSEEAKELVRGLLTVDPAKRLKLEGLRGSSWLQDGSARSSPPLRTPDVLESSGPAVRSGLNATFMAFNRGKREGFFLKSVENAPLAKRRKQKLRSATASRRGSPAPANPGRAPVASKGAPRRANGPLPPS
TLK1 (human), sequence (Q9UKI8 whole entry, looked up): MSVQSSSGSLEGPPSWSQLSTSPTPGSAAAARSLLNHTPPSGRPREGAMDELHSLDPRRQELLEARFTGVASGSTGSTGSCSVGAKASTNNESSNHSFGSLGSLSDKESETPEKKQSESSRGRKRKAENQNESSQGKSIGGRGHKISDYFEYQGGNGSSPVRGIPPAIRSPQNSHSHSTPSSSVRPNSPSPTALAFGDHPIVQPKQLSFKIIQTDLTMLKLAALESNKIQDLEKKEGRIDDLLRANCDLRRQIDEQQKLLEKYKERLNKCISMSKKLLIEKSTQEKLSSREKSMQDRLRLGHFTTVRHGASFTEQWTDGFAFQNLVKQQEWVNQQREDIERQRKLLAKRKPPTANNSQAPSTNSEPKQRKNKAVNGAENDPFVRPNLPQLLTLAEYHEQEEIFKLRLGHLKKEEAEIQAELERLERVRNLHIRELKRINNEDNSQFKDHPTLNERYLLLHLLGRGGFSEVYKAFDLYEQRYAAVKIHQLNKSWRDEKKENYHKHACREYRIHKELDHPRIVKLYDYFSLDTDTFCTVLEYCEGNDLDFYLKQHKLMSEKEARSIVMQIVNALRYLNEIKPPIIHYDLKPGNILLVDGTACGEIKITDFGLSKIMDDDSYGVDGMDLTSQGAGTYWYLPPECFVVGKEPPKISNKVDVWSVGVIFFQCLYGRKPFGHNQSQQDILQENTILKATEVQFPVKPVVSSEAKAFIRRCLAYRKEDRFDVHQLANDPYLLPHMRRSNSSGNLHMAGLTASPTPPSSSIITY
MAPK8 (human), sequence (P45983 whole entry, looked up): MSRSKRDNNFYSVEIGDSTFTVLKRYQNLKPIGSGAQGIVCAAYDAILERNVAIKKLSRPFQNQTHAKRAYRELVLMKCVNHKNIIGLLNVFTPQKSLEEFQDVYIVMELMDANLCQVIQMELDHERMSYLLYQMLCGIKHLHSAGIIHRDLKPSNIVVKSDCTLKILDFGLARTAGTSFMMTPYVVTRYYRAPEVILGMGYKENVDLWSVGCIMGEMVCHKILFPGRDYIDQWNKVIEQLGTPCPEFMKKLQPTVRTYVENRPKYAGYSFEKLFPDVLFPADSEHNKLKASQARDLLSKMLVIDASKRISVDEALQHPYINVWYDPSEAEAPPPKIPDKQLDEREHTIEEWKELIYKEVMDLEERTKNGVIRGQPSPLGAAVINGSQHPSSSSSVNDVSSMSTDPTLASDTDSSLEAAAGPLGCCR
AURKC (human), sequence (Q9UQB9 whole entry, looked up): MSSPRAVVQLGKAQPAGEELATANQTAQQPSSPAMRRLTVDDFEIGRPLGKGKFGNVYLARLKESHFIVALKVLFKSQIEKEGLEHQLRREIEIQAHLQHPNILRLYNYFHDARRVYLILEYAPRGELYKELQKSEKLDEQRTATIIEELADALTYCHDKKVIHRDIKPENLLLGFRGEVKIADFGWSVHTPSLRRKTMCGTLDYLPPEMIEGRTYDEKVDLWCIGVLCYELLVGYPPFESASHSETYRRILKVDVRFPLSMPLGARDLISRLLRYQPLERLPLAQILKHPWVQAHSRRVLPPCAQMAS

SMILES | kinase still bound, per cent of control (AURKC (human)) | kinase still bound, per cent of control (RPS6KA4 KD2 (human)) | kinase still bound, per cent of control (RPS6KA2 KD2 (human)) | kinase still bound, per cent of control (AAK1 (human)) | kinase still bound, per cent of control (TAOK3 (human)) | kinase still bound, per cent of control (RIOK1 (human)) | kinase still bound, per cent of control (CSNK1G1 (human)) | kinase still bound, per cent of control (STK11 (human)) | kinase still bound, per cent of control (MAPK15 (human)) | kinase still bound, per cent of control (CHUK (human)) | kinase still bound, per cent of control (ULK2 (human)) | kinase still bound, per cent of control (MAPK8 (human)) | kinase still bound, per cent of control (TTK (human)) | kinase still bound, per cent of control [3] | kinase still bound, per cent of control [4] | kinase still bound, per cent of control [5] | kinase still bound, per cent of control (TLK1 (human)) | kinase still bound, per cent of control (PDGFRB (human)) | kinase still bound, per cent of control (ACVR2A (human)) | kinase still bound, per cent of control (MAP2K3 (human)) | also measured
Nc1cccc(-c2cc(/C=C3\SC(=O)NC3=O)c[nH]c2=O)c1 | 30% | 0.1% | 3.8% | 1.8% | 24% | 9.8% | 19% | 19% | 0.55% | 30% | 33% |  |  |  |  |  |  |  |  |  | kinase still bound, per cent of control [1]: 6.6%; kinase still bound, per cent of control [2]: 9.4%
O=C1NC(=S)S/C1=C\c1ccc(-c2cncc3ccccc23)o1 | 5.2% |  | 6.2% | 4.7% |  | 3.7% |  | 17% | 9% | 8.4% |  | 7% | 17% | 8.5% | 5% | 7.4% | 5.8% | 18% |  |  | kinase still bound, per cent of control (LTK (human)): 13%; kinase still bound, per cent of control (STK25 (human)): 20%; kinase still bound, per cent of control (KDR (human)): 21%
N=C1NC(=O)/C(=C/c2ccc(-c3cncc4ccccc34)o2)S1 | 0.3% | 27% | 13% | 1.1% | 26% | 1.4% |  | 6% | 10% | 1.4% |  | 20% | 2.4% | 13% |  | 3.3% | 28% | 5.4% | 8.6% |  | kinase still bound, per cent of control [6]: 16%; kinase still bound, per cent of control (PKN1 (human)): 28%; kinase still bound, per cent of control [1]: 29%; kinase still bound, per cent of control (STK25 (human)): 18%; kinase still bound, per cent of control (RPS6KA1 KD1 (human)): 30%; kinase still bound, per cent of control (MYLK2 (human)): 12%; kinase still bound, per cent of control (MAP2K1 (human)): 26%
CN1C(=O)[C@H]2CCC[C@H]2N(C2CCCC2)c2nc(Nc3ccc(C(N)=O)cc3)ncc21 | 2.2% | 0.55% | 20% |  | 10% | 26% | 23% |  | 18% |  | 17% | 29% | 14% | 9.2% | 15% | 11% | 8.6% |  |  |  | kinase still bound, per cent of control (MAPK7 (human)): 0.1%; kinase still bound, per cent of control (PKN1 (human)): 30%; kinase still bound, per cent of control (RPS6KA1 KD1 (human)): 11%; kinase still bound, per cent of control (RPS6KA6 KD1 (human)): 30%; kinase still bound, per cent of control (MYLK2 (human)): 15%; kinase still bound, per cent of control (NEK9 (human)): 8.9%
CS(=O)(=O)Nc1ccc(-c2cc(/C=C3\SC(=N)NC3=O)c[nH]c2=O)cc1 |  | 0.35% |  | 7.6% |  | 11% |  | 7% | 0.1% | 15% |  |  | 33% |  |  |  |  |  | 6.6% | 10% | 
N=C1NC(=O)/C(=C/c2ccc(-c3csc4ccccc34)o2)S1 |  |  | 21% |  |  |  |  |  | 7.6% |  |  | 34% |  | 19% | 8.5% |  | 11% |  | 10% | 20% | 
CS(=O)(=O)Nc1ccc(-c2ncc(/C=C3\SC(=N)NC3=O)s2)cc1 |  | 1.2% |  | 13% |  | 27% | 22% |  |  |  | 24% |  | 19% |  |  | 23% |  | 10% | 18% |  | 
N=C1NC(=O)/C(=C/c2c[nH]c(=O)c(-c3ccc(N4CCNCC4)nc3)c2)S1 |  | 0.1% | 33% | 12% |  | 10% |  |  | 4% |  | 4.8% |  |  |  |  |  |  |  |  |  | 
CSC1=NC(=O)/C(=C/c2c[nH]c(=O)c(-c3ccc(NS(C)(=O)=O)cc3)c2)S1 |  | 0.15% | 16% | 6.2% |  | 7.1% |  | 15% | 5% | 19% | 13% |  |  |  |  |  |  |  |  | 29% | 
N=C1NC(=O)/C(=C/c2ccc(-c3ccc(F)cc3O)o2)S1 |  | 1.8% |  | 16% | 0.2% | 23% |  |  | 0.1% | 15% | 14% |  |  |  | 31% |  |  |  |  | 3.2% | kinase still bound, per cent of control [2]: 29%
N=C1NC(=O)/C(=C/c2ccc(-c3ccccc3O)o2)S1 |  | 2.2% |  | 8.2% | 0.05% | 21% |  |  | 0.3% | 9.5% | 12% |  |  |  |  |  |  |  | 31% | 3.4% | 
CS(=O)(=O)Nc1ccc(-c2cncc(/C=C3\SC(=N)NC3=O)c2)cc1 | 16% |  |  | 32% | 4.7% | 7.8% | 18% | 17% | 13% | 19% | 29% |  |  |  |  | 8.7% | 26% | 7.2% | 0.9% | 16% | kinase still bound, per cent of control [2]: 17%
N=C1NC(=O)/C(=C/c2ccc(-c3ccc(C(N)=O)cc3O)o2)S1 |  | 0.75% |  | 15% | 13% |  |  |  | 0.1% | 16% |  |  | 34% |  | 0.25% |  |  |  |  |  | 

From the kinase profiling compilation of Christmann-Franck et al. (2016)
